Experimental data: patent US6670363B1, “Azole compounds as therapeutic agents for fungal infections” (Ranbaxy Laboratories Limited, priority 2000, dated 2003)
Values after ≈ are worked out from the molar mass of the structure shown.

The compounds below were run on A. fumigatus s 1008 (assay: In vitro MIC, NCCLS M38P broth method (RPMI 1640/MOPS pH7), Aspergillus fumigatus). Details: A. fumigatus s 1008.
Format: cell-based

Q: For `COC(=O)Cc1ccc(NC(=O)Nc2ccc(N(C)CC(O)(Cn3cncn3)c3ccc(F)cc3F)cc2)cc1` (stereo not shown) [Compound 88, 3-{N-[4-((2-Methoxy-2-oxoethyl)-phenylureido)-phenyl]-N-methyl}-2-(2,4-difluorophenyl)-1-(1H-1,2,4-triazolyl)-propan-3-amino-2-ol], which “MIC (υg/ml) (A. fumigatus s 1008)” value is on record?
A: >12.5 µg/mL

Q: For “3-{4-[4-(4-chlorophenyl-N-ethylureido)-piperazinyl]-phenoxy}-2-(2,4-difluorophenyl)-1-(1H-1,2,4-triazolyl)-2-ethoxy-3-propylamine [Compound 74]”, which “MIC (υg/ml) (A. fumigatus s 1008)” value is on record?
A: >12.5 µg/mL

Q: For `OC(COc1ccc(N2CCN(NC(=S)Nc3ccc(C(F)(F)F)cc3)CC2)cc1)(Cn1cncn1)c1ccc(F)cc1F` (stereo not shown) [Compound 70, 3-{4-[4-(4-Trifluoromethylphenylthioureido)piperazinyl]phenoxy}-2-(2,4-difluorophenyl)-1-(1H-1,2,4-triazol-1-yl)-propan-2-ol], which “MIC (υg/ml) (A. fumigatus s 1008)” value is on record?
A: >12.5 µg/mL

Q: “3-{4-[4-(4-chlorophenyl-N-ethylureido)-piperazinyl]-phenoxy}-2-(2,4-difluorophenyl)-1-(1H-1,2,4-triazolyl)-propan-3-amino-2-ol [Compound 73]” was tested. Which “MIC (υg/ml) (A. fumigatus s 1008)” value did it give?
A: >12.5 µg/mL

Q: Which “MIC (υg/ml) (A. fumigatus s 1008)” value does the source give for `CC(C)NC(=S)NN1CCN(c2ccc(OCC(O)(Cn3cncn3)c3ccc(F)cc3F)cc2)CC1` (stereo not shown) [Compound 65, 3-{4-[4-(Isopropylaminothiocarbonylamino)piperazinyl]phenoxy}-2-(2,4-difluorophenyl)-1-(1H-1,2,4-triazol-1-yl)-propan-2-ol] here?
A: >12.5 µg/mL

Q: Which “MIC (υg/ml) (A. fumigatus s 1008)” value does the source give for `CC(Oc1ccc(N2CCN(NC(=O)Nc3ccc(C(F)(F)F)cc3)CC2)cc1)C(O)(Cn1cncn1)c1ccc(F)cc1F` (stereo not shown) [Compound 79, 1-{4-[4-(4-Trifluoromethylphenylureido)piperazinyl]phenoxy}-2-(2,4-difluorophenyl)-1-methyl-3-(1H-1,2,4-triazol-1-yl)-propan-2-ol] here?
A: 8 µg/mL (≈ 12.7 µM)

Q: Which “MIC (υg/ml) (A. fumigatus s 1008)” value does the source give for `CC(C)NC(=S)Nc1ccc(N(C)CC(O)(Cn2cncn2)c2ccc(F)cc2F)cc1` (stereo not shown) [Compound 82, 3-{N-[4-(Isopropylthioureido)-phenyl]-N-methyl}-2-(2,4-difluorophenyl)-1-(1H-1,2,4-triazolyl)-propan-3-amino-2-ol] here?
A: >12.5 µg/mL

Q: With `COC(COc1ccc(N2CCN(NC(=O)N(C)c3ccc(Cl)cc3)CC2)cc1)(Cn1cncn1)c1ccc(F)cc1F` (stereo not shown) [Compound 75, 3-{4-[4-N-(4-Chlorophenyl)-N-(methylureido)-piperazinyl]-phenoxy}-2-(2,4-difluorophenyl)-1-(1H-1,2,4-triazolyl)-2-methoxypropane] as the compound, how does the “MIC (υg/ml) (A. fumigatus s 1008)” value read?
A: >12.5 µg/mL

Q: With `CN(CC(O)(Cn1cncn1)c1ccc(F)cc1F)c1ccc(NC(=O)Nc2ccc(CC(=O)O)cc2)cc1` (stereo not shown) [Compound 87] as the compound, how does the “MIC (υg/ml) (A. fumigatus s 1008)” value read?
A: >12.5 µg/mL

Q: How did the “MIC (υg/ml) (A. fumigatus s 1008)” value turn out when `O=C(Nc1ccccc1)NN1CCN(c2ccc(OCC(O)(Cn3cncn3)c3ccc(F)cc3F)cc2)CC1` (stereo not shown) [Compound 80, 3-{4-[4-(Phenylureido)-piperazinyl]phenoxy}-2-(2,4-difluorophenyl)-1-(1H-1,2,4-triazol-1-yl)-propan-2-ol] was run?
A: >12.5 µg/mL

Q: For `O=C(Nc1ccc(Cl)cc1)NN1CCN(c2ccc(OCC(O)(Cn3cncn3)c3ccc(F)cc3F)cc2)CC1` (stereo not shown) [Compound 67, 3-{4-[4-(4-Chlorophenylureido)piperazinyl]phenoxy}-2-(2,4-difluorophenyl)-1-(1H-1,2,4-triazol-1-yl)-propan-2-ol], which “MIC (υg/ml) (A. fumigatus s 1008)” value is on record?
A: 6.25 µg/mL (≈ 10.7 µM)

Q: With `CN(CC(O)(Cn1cncn1)c1ccc(F)cc1F)c1ccc(NC(=S)Nc2ccccc2)cc1` (stereo not shown) [Compound 81, 3-{N-[4-(Phenylthioureido)-phenyl]-N-methyl}-2-(2,4-Difluorophenyl)-1-(1H-1,2,4-triazolyl)-propan-3-amino-2-ol] as the compound, how does the “MIC (υg/ml) (A. fumigatus s 1008)” value read?
A: >12.5 µg/mL

Q: Which “MIC (υg/ml) (A. fumigatus s 1008)” value does the source give for `Cc1ccc(NC(=S)Nc2ccc(N(C)CC(O)(Cn3cncn3)c3ccc(F)cc3F)cc2)cc1` (stereo not shown) [Compound 83, 3-{N-[4-(p-Tolylthioureido)-phenyl]-N-methyl}-2-(2,4-difluorophenyl)-1-(1H-1,2,4-triazolyl)-propan-3-amino-2-ol] here?
A: >12.5 µg/mL
